According to ChEMBL document CHEMBL1201862, “PubChem BioAssay data set” (2004):
Activity calls are given as the source filed them.

How the values were obtained:
[1] = molecular target: T1, DNA repair and recombination protein RAD54-like (Homo sapiens, UniProt Q92698); assay: inhibitors of human RAD54 branch migration, confirmation, biochemical, fluorescence, cherry-picked samples, dose series (AID 651657); type: functional
T1 sequence (Q92698 whole entry): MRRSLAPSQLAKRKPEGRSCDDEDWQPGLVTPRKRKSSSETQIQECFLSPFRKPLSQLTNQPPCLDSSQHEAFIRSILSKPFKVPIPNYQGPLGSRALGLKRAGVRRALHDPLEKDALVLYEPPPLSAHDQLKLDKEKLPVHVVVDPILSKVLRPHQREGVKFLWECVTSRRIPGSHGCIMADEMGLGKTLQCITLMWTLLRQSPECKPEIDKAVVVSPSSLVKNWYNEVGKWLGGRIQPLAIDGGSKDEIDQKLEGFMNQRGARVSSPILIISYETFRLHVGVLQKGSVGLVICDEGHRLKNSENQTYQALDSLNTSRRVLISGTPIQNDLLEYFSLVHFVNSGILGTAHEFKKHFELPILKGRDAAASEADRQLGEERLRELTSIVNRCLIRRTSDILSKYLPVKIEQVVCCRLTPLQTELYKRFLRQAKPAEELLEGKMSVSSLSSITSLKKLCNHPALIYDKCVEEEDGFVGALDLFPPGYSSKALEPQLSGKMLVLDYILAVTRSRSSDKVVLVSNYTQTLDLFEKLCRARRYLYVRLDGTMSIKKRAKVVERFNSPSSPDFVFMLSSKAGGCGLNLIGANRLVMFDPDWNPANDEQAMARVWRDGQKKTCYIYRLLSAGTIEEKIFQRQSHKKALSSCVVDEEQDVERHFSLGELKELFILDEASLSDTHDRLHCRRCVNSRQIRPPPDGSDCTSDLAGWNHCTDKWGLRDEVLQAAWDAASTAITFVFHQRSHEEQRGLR

[2] = molecular target: T2, DNA repair protein RAD52 homolog (Homo sapiens, UniProt P43351); type: functional, biochemical
T2 sequence (P43351 whole entry): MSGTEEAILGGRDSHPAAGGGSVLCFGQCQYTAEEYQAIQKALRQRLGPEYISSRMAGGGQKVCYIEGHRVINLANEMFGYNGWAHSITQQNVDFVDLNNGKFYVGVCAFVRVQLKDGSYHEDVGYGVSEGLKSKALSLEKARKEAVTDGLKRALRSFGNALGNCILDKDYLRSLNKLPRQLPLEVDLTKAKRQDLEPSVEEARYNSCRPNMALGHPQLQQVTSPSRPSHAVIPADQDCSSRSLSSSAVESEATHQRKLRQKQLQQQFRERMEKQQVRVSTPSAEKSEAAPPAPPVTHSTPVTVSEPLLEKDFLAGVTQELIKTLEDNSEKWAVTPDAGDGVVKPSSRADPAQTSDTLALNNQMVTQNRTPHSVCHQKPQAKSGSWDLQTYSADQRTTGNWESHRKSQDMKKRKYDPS

[3] = MDA-MB-231 cell growth inhibition, dose response, cytotoxicity control for RAD54 inhibitor project, CellTiter-Glo luminescence, cherry-pick (AID 651692); type: functional, cell-based
[4] = molecular target: T3, Beta Lactamase (Pseudomonas aeruginosa, UniProt Q932Y6); assay: VIM-2 metallo-beta-lactamase inhibitor potency, dose response, biochemical, epi-absorbance readout, selective inhibitors (AID 1919)
T3 sequence (Q932Y6 whole entry): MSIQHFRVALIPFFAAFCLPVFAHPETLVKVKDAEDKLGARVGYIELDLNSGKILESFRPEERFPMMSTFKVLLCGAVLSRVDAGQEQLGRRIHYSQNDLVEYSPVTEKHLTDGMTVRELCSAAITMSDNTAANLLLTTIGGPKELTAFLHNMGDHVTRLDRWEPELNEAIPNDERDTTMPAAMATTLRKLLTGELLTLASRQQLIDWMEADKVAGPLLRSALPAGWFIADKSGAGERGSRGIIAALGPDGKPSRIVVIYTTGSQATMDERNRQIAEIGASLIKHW

[5] = molecular target: T4, Beta-lactamase (Pseudomonas aeruginosa, UniProt Q79MP6); assay: […] counterscreen for selective VIM-2 inhibitors: dose response biochemical high throughput screening assay to identify inhibitors of IMP-1 metallo-beta-lactamase.
T4 sequence (Q79MP6 whole entry): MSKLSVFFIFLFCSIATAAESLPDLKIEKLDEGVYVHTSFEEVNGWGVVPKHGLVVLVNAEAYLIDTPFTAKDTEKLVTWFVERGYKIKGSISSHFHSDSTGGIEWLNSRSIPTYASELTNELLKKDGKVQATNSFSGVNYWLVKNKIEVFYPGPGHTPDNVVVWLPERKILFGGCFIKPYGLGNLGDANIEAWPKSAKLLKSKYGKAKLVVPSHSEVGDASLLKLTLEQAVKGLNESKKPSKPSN

[6] = molecular target: T4, Beta-lactamase; assay: IMP-1 metallo-beta-lactamase inhibitors, dose response, selectivity assay for VIM-2 inhibitor project, biochemical, epi-absorbance (AID 1920)
[7] = molecular target: Beta-lactamase (Salmonella choleraesuis (strain SC-B67), UniProt Q5J463); assay: Epi-absorbance-based counterscreen for selective VIM-2 inhibitors: dose response biochemical high throughput screening assay to identify inhibitors of TEM-1 serine-beta-lactamase.
Sequence of Beta-lactamase (Salmonella choleraesuis (strain SC-B67), UniProt Q5J463) (Q5J463 whole entry): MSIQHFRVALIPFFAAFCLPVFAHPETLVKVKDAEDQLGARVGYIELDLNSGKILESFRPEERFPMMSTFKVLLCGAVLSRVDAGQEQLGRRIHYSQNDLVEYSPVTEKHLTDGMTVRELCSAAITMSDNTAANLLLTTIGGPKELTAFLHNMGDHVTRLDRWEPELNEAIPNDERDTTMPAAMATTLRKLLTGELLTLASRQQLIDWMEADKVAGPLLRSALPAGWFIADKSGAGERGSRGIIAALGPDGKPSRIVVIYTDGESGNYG

[8] = molecular target: T3, Beta Lactamase; assay: VIM-2 inhibitor FRET-based artefact check, dose response, artefact control for selective VIM-2 inhibitor project, biochemical, FRET readout, CCF2 substrate (AID 1926)
[9] = molecular target: Long-chain-fatty-acid--AMP ligase FadD28 (Mycobacterium tuberculosis, UniProt P9WQ59); assay: Fluorescence polarization aasay to screen for inhibitors that compete for the binding of FadD28 to a bisubstrate Measured in Biochemical System Using Plate Reader - 2147-01_Inhibitor_Dose_CherryPick_Activity.; type: functional, Mycobacterium tuberculosis H37Rv
Sequence of Long-chain-fatty-acid--AMP ligase FadD28 (P9WQ59 whole entry): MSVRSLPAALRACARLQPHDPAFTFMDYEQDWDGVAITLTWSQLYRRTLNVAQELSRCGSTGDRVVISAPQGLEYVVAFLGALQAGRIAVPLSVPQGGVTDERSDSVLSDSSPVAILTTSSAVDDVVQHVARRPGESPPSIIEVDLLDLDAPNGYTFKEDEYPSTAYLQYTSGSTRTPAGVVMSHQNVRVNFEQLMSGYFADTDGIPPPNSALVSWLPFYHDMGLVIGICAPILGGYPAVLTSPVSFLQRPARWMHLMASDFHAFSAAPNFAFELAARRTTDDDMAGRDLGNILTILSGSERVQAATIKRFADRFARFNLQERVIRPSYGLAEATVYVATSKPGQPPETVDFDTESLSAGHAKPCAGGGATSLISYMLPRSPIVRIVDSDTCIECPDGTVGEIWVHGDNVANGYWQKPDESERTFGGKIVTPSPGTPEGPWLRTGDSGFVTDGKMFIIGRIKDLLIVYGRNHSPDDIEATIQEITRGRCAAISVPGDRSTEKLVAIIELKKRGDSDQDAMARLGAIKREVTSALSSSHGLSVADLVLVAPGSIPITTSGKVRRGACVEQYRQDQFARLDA

[10] = molecular target: Large T antigen (Simian virus 40, UniProt P03070); type: functional, Betapolyomavirus macacae;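 further: Confirmatory-stage PubChem screen for compounds that inhibit SV40 T antigen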
Sequence of Large T antigen (P03070 whole entry): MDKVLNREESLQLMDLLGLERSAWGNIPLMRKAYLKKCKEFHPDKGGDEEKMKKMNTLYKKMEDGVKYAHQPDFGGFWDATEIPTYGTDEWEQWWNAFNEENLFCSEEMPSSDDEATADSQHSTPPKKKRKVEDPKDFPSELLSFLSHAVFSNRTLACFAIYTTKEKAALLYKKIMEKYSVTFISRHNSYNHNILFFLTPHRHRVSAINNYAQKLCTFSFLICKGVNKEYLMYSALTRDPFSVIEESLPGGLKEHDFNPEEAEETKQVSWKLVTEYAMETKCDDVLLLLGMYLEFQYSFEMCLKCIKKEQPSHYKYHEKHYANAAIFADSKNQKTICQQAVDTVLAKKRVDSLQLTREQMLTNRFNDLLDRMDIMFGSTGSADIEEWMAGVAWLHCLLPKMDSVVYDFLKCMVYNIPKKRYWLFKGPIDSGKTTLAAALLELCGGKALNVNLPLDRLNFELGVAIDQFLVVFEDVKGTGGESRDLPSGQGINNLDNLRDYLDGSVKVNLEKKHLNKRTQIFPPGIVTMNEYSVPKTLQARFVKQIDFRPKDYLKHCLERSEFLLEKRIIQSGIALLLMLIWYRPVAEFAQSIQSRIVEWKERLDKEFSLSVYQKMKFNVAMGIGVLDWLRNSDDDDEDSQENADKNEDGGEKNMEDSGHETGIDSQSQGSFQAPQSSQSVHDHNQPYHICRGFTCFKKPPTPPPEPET

## Cc1cc2oc3ccc(NCCC4CCCN4C)cc3c(=O)c2cc1C (stereo not given)
[1]
  AC50: 14.7 µM (active)
[2]
  AC50: 8.31 µM (active)
[3]
  AC50: 23.6 µM (active)

## CN(C)S(=O)(=O)c1cccc(NC(=S)N/N=C/C2CC=CCC2)c1 (stereo not given)
[4]
  IC50: 1 µM (active)
[5]
  IC50: > 59.6 µM (inactive)
[6]
  IC50: > 59.6 µM (inactive)
[7]
  IC50: > 59.6 µM (inactive)
[8]
  IC50: 0.335 µM (active)

## Cc1[nH]c2ccccc2c1-c1csc(NC(=O)CSCC(=O)O)n1
[9]
  AC50: > 100 µM (inactive)
[10]
  IC50: 26.2 µM (active)
